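Cells were grown in 96-well plates and exposed to each compound for 48 hours at five concentrations; endpoints were interpolated linearly between bracketing concentrations, or set to the highest concentration if not reached. GI50 marks 50% less growth. TGI: total growth inhibition.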
Assays:
Assay in all cases: NCI anticancer screen, dose series, 48 h
COLO 205 colon = test system: COLO 205 colon
SW-620 colon = test system: SW-620 colon
SK-OV-3 ovarian = test system: SK-OV-3 ovarian
786-0 renal = test system: 786-0 renal
SF-295 CNS = test system: SF-295 CNS
RXF 393 renal = test system: RXF 393 renal
SF-268 CNS = test system: SF-268 CNS
A498 renal = test system: A498 renal
SNB-75 CNS = test system: SNB-75 CNS
SK-MEL-5 melanoma = test system: SK-MEL-5 melanoma
MDA-N = test system: MDA-N

| SMILES | TGI (COLO 205 colon) [µM] | TGI (SW-620 colon) [µM] | TGI (SK-OV-3 ovarian) [µM] | TGI (786-0 renal) [µM] | TGI (SF-295 CNS) [µM] | TGI (RXF 393 renal) [µM] | TGI (SF-268 CNS) [µM] | TGI (A498 renal) [µM] | TGI (SNB-75 CNS) [µM] | TGI (SK-MEL-5 melanoma) [µM] | TGI (MDA-N) [µM] | GI50 (COLO 205 colon) [µM] | GI50 (SW-620 colon) [µM] | GI50 (SF-295 CNS) [µM] | GI50 (RXF 393 renal) [µM] | GI50 (SF-268 CNS) [µM] | GI50 (A498 renal) [µM] | GI50 (SNB-75 CNS) [µM] | GI50 (SK-MEL-5 melanoma) [µM] |
| --- | --- | --- | --- | --- | --- | --- | --- | --- | --- | --- | --- | --- | --- | --- | --- | --- | --- | --- | --- |
| Cc1cc(Cc2cc(C)c(NC(=O)C(=O)C3CCC4=C(SC5C=CC=CC5N4)C3=O)c(C(C)C)c2)cc(C(C)C)c1NC(=O)C(=O)C1CCC2=C(SC3C=CC=CC3N2)C1=O (stereo not given) | > 100 | > 100 | > 100 | > 100 | > 100 | > 100 | > 100 | > 100 | > 100 | > 100 | – | – | – | – | – | – | – | – | – |
| OC(c1ccc(C(F)(F)F)cc1)C(F)(F)c1nc2ccccc2o1 (stereo not given) | > 100 | > 100 | > 100 | > 100 | > 100 | > 100 | > 100 | – | > 100 | > 100 | – | – | – | – | – | – | – | – | – |
| CC1=C(O)C(=O)C2C(=O)C1C1Cc3ccccc3C21 (stereo not given) | > 100 | > 100 | > 100 | > 100 | > 100 | > 100 | > 100 | > 100 | > 100 | > 100 | – | – | – | – | – | – | – | – | – |
| N#CC(=N)c1ncn(-c2ccc(N)cc2)c1N | > 100 | > 100 | > 100 | > 100 | > 100 | – | > 100 | > 100 | > 100 | > 100 | > 100 | – | – | – | – | – | – | – | – |
| COc1ccc(Cc2nnc(Nc3ccc(Br)cc3)[nH]c2=O)cc1OC | > 100 | > 100 | > 100 | > 100 | > 100 | > 100 | > 100 | > 100 | > 100 | > 100 | – | – | – | – | – | – | – | – | – |
| N#Cc1c(-c2ccc(Cl)cc2)[nH]c(=O)n(C2OC(CO)C(O)C(O)C2O)c1=O (stereo not given) | > 100 | > 100 | > 100 | > 100 | > 100 | > 100 | > 100 | > 100 | > 100 | > 100 | – | – | – | – | – | – | – | – | – |
| COc1ccc(-c2cc(=O)c3cc(OC)ccc3[nH]2)cc1 | > 100 | > 100 | > 100 | > 100 | > 100 | > 100 | > 100 | – | > 100 | > 100 | – | – | – | – | – | – | – | – | – |
| CN(C)CCn1c(=O)c2ccc(NCCN3CCNCC3)c3c(=O)c4ccccc4n(c1=O)c23 | 13 | 21.3 | 24.6 | 14.1 | 18 | – | 18.7 | 16.1 | 10.1 | 12.7 | 18.9 | – | – | – | – | – | – | – | – |
| O=C1CSC(c2ccccc2[N+](=O)[O-])N1c1ccc(-c2ccc(-n3c(-c4ccccc4)nc4ccccc4c3=O)cc2)cc1 (stereo not given) | > 100 | > 100 | > 100 | > 100 | > 100 | – | > 100 | > 100 | 61.3 | > 100 | > 100 | – | – | – | – | – | – | – | – |
| CSc1nc(NC2OC(COC(C)=O)C(OC(C)=O)C(OC(C)=O)C2OC(C)=O)c2c(n1)OCC2=O (stereo not given) | > 100 | > 100 | > 100 | > 100 | > 100 | – | > 100 | > 100 | > 100 | > 100 | – | – | – | – | – | – | – | – | – |
| NC(=O)Cc1nc2c(N)ncnc2n1C1OC(CO)C(O)C1O (stereo not given) | > 100 | > 100 | > 100 | > 100 | > 100 | – | > 100 | > 100 | – | > 100 | > 100 | – | – | – | – | – | – | – | – |
| O=[N+]([O-])C(=C(N1CCOCC1)N1CCOCC1)/C(Cl)=C(\Cl)Br | 29.6 | 28.8 | – | 58.4 | > 100 | – | 81.3 | > 100 | 33.2 | – | 70.6 | – | – | – | – | – | – | – | – |
| CC(C)N=C(N)NC#N | > 100 | > 100 | > 100 | – | > 100 | – | > 100 | > 100 | > 100 | – | – | – | – | – | – | – | – | – | – |
| COc1ccc(CCCNC(=O)c2cc(OC)c(OC)cc2CCO)cc1OC | > 100 | > 100 | > 100 | > 100 | > 100 | > 100 | > 100 | > 100 | > 100 | > 100 | – | – | – | – | – | – | – | – | – |
| O=C(Nc1ccc(-n2ccc3c(NC(=O)c4ccccc4)ncnc32)cc1)Nc1ccc(Cl)c(Cl)c1 | 9.89 | 5.31 | – | – | 14.2 | 13.3 | 12.9 | 14.7 | 5.27 | 15.1 | – | 2.6 | 1.54 | 4.5 | 6.48 | 4.22 | 7.05 | 1.03 | 7.05 |
| CC(=O)Nc1ccc2c3c(cc(O)c2c1)N(C(=O)CCCCCCC(=O)N1CC(CCl)c2c1cc(O)c1cc(NC(C)=O)ccc21)CC3CCl (stereo not given) | 0.0161 | > 100 | 12.4 | 0.0204 | 3.19 | 0.0185 | 0.464 | < 0.01 | < 0.01 | < 0.0109 | – | – | – | – | – | – | – | – | – |

| SMILES | TGI (COLO 205 colon) [µM] | TGI (SW-620 colon) [µM] | TGI (SK-OV-3 ovarian) [µM] | TGI (786-0 renal) [µM] | TGI (SF-295 CNS) [µM] | TGI (RXF 393 renal) [µM] | TGI (SF-268 CNS) [µM] | TGI (A498 renal) [µM] | TGI (SNB-75 CNS) [µM] | TGI (SK-MEL-5 melanoma) [µM] | TGI (MDA-N) [µM] | GI50 (COLO 205 colon) [µM] | GI50 (SW-620 colon) [µM] | GI50 (SF-295 CNS) [µM] | GI50 (RXF 393 renal) [µM] | GI50 (SF-268 CNS) [µM] | GI50 (A498 renal) [µM] | GI50 (SNB-75 CNS) [µM] | GI50 (SK-MEL-5 melanoma) [µM] |
| --- | --- | --- | --- | --- | --- | --- | --- | --- | --- | --- | --- | --- | --- | --- | --- | --- | --- | --- | --- |
| Cc1cc(/C=C/c2cc[n+](C)c3ccccc23)c(O)c2ncccc12 | 23.3 | 19.3 | 13 | 14.3 | 15.5 | 9.83 | 11 | 15.5 | 24 | 4.98 | – | – | – | – | – | – | – | – | – |
| N#Cc1c(N2CCC(O)C2)c2ccccc2n2c1nc1ccccc12 (stereo not given) | > 100 | > 100 | – | 50.6 | > 100 | – | > 100 | 95.5 | 62.9 | > 100 | > 100 | – | – | – | – | – | – | – | – |
| O=C(Nc1ccc2[nH]c(C(=O)N3CC(CCl)c4c3cc([N+](=O)[O-])c3ccccc43)cc2c1)Nc1ccc2[nH]c(C(=O)N3CC(CCl)c4c3cc([N+](=O)[O-])c3ccccc43)cc2c1 (stereo not given) | > 100 | – | > 100 | > 100 | > 100 | – | > 100 | > 100 | > 100 | > 100 | > 100 | – | – | – | – | – | – | – | – |
| CCOc1ccc(N/C(=C(/C(Cl)=C(/Cl)N2CCCCC2)[N+](=O)[O-])n2nnc3ccccc32)cc1 | 42.5 | – | 82 | 39.8 | 49 | – | 37.4 | 34.9 | 50.6 | 29.9 | 52.4 | – | – | – | – | – | – | – | – |
| COC1C(O)C(n2ncc3c(SC)nc(SC)nc32)OC1C(O)CO (stereo not given) | > 100 | > 100 | > 100 | – | > 100 | > 100 | > 100 | > 100 | > 100 | > 100 | – | – | – | – | – | – | – | – | – |
| Nc1nc2ncc(CNc3ccc(C(=O)NC(CCC(=O)O)C(=O)O)cc3)nc2c(=O)[nH]1 (stereo not given) | – | > 100 | – | > 100 | > 100 | > 100 | > 100 | – | > 100 | > 100 | – | – | – | – | – | – | – | – | – |
| Cc1c(N2CCN(C)CC2)nc2ccc(Cl)cc2c1-c1ccccc1 | 29.7 | 34.6 | > 100 | 27.9 | 31.2 | 42.3 | > 100 | 25.3 | 36.5 | 28.8 | – | – | – | – | – | – | – | – | – |
| CC(C)NC(=O)OCc1c(CO)c2c(n1C)-c1ccccc1CC2 | 44.7 | 38.8 | > 100 | – | > 100 | 49.6 | > 100 | > 100 | > 100 | 71 | – | – | – | – | – | – | – | – | – |
| C/C(CC(=O)Nc1ccc(C)c(C)c1)=N\NC(N)=O | > 100 | > 100 | > 100 | > 100 | > 100 | > 100 | > 100 | > 100 | > 100 | > 100 | – | – | – | – | – | – | – | – | – |
| C=CCN(C(=O)OC(C)(C)C)[C@H](C)C(=O)N[C@@H](C)C(=O)OC | > 100 | > 100 | > 100 | > 100 | > 100 | – | > 100 | > 100 | – | > 100 | > 100 | – | – | – | – | – | – | – | – |
| CN(C)CCNC(=O)c1cccc(N(C)C(=O)c2ccccc2)c1[N+](=O)[O-] | > 10 | > 100 | > 100 | > 100 | > 100 | – | > 100 | > 100 | > 100 | > 100 | > 100 | – | – | – | – | – | – | – | – |
| CCCCCCCCCCCCCCCCCCNC(=S)/N=C\C1=C(O)c2ccccc2C1=O | 29.1 | 25.3 | 33.6 | 21.2 | 31.2 | – | 22.1 | 40 | – | 34.7 | 31.4 | – | – | – | – | – | – | – | – |
| COc1ccccc1-c1cc(=O)c2cc3c(cc2[nH]1)OCO3 | 51.5 | > 100 | – | > 100 | 62.6 | 56.2 | > 100 | 62.4 | > 100 | > 100 | – | – | – | 21.1 | 15.1 | 64.5 | – | – | – |
| C/C(CC(O)(/C=N/O)c1ccccc1)=N/O (stereo not given) | – | > 100 | > 100 | > 100 | > 100 | – | > 100 | – | – | > 100 | > 100 | – | – | – | – | – | – | – | – |
| COC1CN(C)C(=Nc2cccc3ccccc23)S1 (stereo not given) | > 10 | > 10 | > 10 | > 10 | > 10 | – | > 10 | – | > 10 | > 10 | > 10 | – | – | – | – | – | – | – | – |
| O=c1c(Br)cc2nc3ccccc3sc-2c1Br | > 91 | > 100 | > 100 | 30.8 | > 100 | > 100 | > 100 | > 100 | > 100 | > 100 | – | – | – | – | – | – | – | – | – |
